Measurements reported in patent publication US20230372350A1, “ASTROCYTIC TRPA1 CHANNEL INHIBITION AS A NOVEL NEUROPROTECTIVE THERAPEUTIC TARGET IN THE PRODROMAL PHASES OF ALZHEIMER'S DISEASE” (priority 2020, published 2023).

Assays:
[1] = tested on: hippocampal astrocytes of APP/PS1-21 and WT mice; test: Chronic intraperitoneal treatment: astrocyte calcium imaging (Fluo-4) in hippocampal slices; format: in vivo, mouse
Protocol: The used model is a transgenic murine model obtained on a C57BL/6J genetic background which co-expresses the mutated human form of the amyloid precursor protein (mutated APP KM670/671NL) and of presenilin 1 (mutated PS1 L166P) under the control of the neural promoter Thy1. The presence of these two mutations allows increased production of the Aβ peptide from the 14th postnatal day. This leads to cerebral amyloidosis with the appearance of the first senile plaques around 8 postnatal weeks. This amyloid pathology is accompanied by inflammatory gliosis (microgliosis and astrogliosis detectable from 4 months), dendritic spine dystrophy and tau hyperphosphorylation (around 8 months). Cognitive behavioral disorders, and in particular of learning and spatial memory, are developed in around 6 to 8 months. This model was set-up and described by Rebecca Radde in 2006 (Radde et al., EMBO reports, 2006) and is widely used by the scientific community. This model is available in the animal facility of the Institut des Neurosciences de Grenoble and has been bred by the inventors since 2014.
This solution is then diluted to 1 μg/μl in an isotonic solution containing 1% Pluronic F-127 and 0.9% NaCl. The animals are injected daily intraperitoneally at a dose of 5 mg/kg of body mass. Sterile 0.5 ml BD MicroFine syringes with no dead volume, equipped with a 30G (0.3 mm) needle are used for the injections.
The carrier (10% DMSO, 1% Pluronic F-127, 0.9% NaCl) is used as a control and is also injected daily, according to the same procedure, into the WT and APP/PS1 control animals (carrier groups).
The injection is started from the 14th postnatal day (appearance of the expression of the Thy1gene promoter in the hippocampus, triggering the overexpression of Aβ in the APP/PS1-21 murine model)
Coronal sections of the hippocampus (thickness 300 μm) were prepared from APP/PS1-21 transgenic mice (1 month and 3 months old) or from WT mice from the same litter. The mice were sacrificed by decerebration and decapitation. The brain was quickly removed and sectioned in ice-cold ACSF containing (in mM) : 2.5 KCl, 7 MgCl2, 0.5 CaCl2, 1.2 NaHPO4, 25 NaHCO3, 11D-glucose and 234 sucrose bubbled with 95% of O2 and 5% of CO2 with a VT1200S vibratome (Leica, Germany). The sections containing the hippocampus were placed in ACSF containing (in mM) : 126 NaCl, 2.5 KCl, 1.2 MgCl2, 2.5 CaCl2, 1.2 NaH2PO4 bubbled with 95% of O2 and 5% of CO2 and supplemented with 1 mM of sodium pyruvate at room temperature for a recovery period.
300 μm coronal sections were transferred to a chamber allowing constant perfusion with ACSF at room temperature, bubbling with 95% of O2 and 5% of CO2 on the upright microscope tray (Eclipse E600 FN, Nikon, France) equipped with a 60× (NA 1.0) water immersion objective and infrared interference contrast optical systems with a CCD camera (Optronis VX45, Germany). 8-11 MSΩ glass pipettes (Harvard Apparatus) were filled with an intracellular solution containing (in mM): 105 K-gluconate, 30 KCl, 10 phosphocreatine, 10 HEPES, 4 ATP-Mg, 0.3 GTP-Tris, 0.2 Fluo-4-pentapotassium salt (Life Technologies), adjusted to pH 7.2 with KOH. The signals were amplified by Axopatch 200B, sampled by a Digidata 1440A interface and recorded by the pClamp8 software (Molecular Devices, USA). Astrocytes were identified on the basis of their morphology, their location in the stratum radiatum and a negative resting potential (between −70 and −80 mV). The membrane potential was maintained at −80 mV. The input resistance was calculated by measuring the current in response to a 10 mV pulse of 80 ms duration near the end of the voltage command.

CA1 pyramidal neurons = test: Acute in vitro application on hippocampal slices: CA1 neuronal activity; format: cell-based, mouse; details: 1-month old APP/PS1-21 animals
Protocol: Coronal sections of the hippocampus (thickness 300 μm) were prepared from APP/PS1-21 transgenic mice (1 month and 3 months old) or from WT mice from the same litter. The mice were sacrificed by decerebration and decapitation. The brain was quickly removed and sectioned in ice-cold ACSF containing (in mM) : 2.5 KCl, 7 MgCl2, 0.5 CaCl2, 1.2 NaHPO4, 25 NaHCO3, 11D-glucose and 234 sucrose bubbled with 95% of O2 and 5% of CO2 with a V[…] vibratome (Leica, Germany). The sections containing the hippocampus were placed in ACSF containing (in mM) : 126 NaCl, 2.5 KCl, 1.2 MgCl2, 2.5 CaCl2, 1.2 NaH2PO4 bubbled with 95% of O2 and 5% of CO2 and supplemented with 1 mM of sodium pyruvate at room temperature for a recovery period. Whole-cell recordings were performed on visually identified CA1 pyramidal neuron somas. […] The sEPSCs and their kinetics were analyzed, after a stabilization period of 10 minutes, 5 minutes from the recordings. Access resistance was constantly monitored and recordings were excluded from this study when this parameter varied more than 20% during the experiment. Recordings were analyzed using the Clampfit module of pClamp8 software (Molecular Devices, USA) with a single one at 20 pA to exclude miniature sEPSCs.

[2] = APP/PS1-21 mice, 1-month old, 5 mg/kg i.p. daily from 14th postnatal day
[3] = APP/PS1-21 mice, 3 months, chronic treatment 5 mg/kg i.p.
[4] = WT control mice, 1-month old, 5 mg/kg i.p. daily from 14th postnatal day
[5] = WT mice, 3 months, chronic treatment 5 mg/kg i.p.

## CC(C)c1ccc(NC(=O)Cn2cnc3c2c(=O)n(C)c(=O)n3C)cc1 [HC030031, 2-(1,3-Dimethyl-2,6-dioxo-1,2,3,6-tetrahydro-7H-purin-7-yl)-N-(4-isopropylphenyl)acetamide]
[1]; [2]
  calcium event frequency: 0.48±0.02 calcium event/minute
  proportion of active microdomains: 56.1±3.9%
[1]; [3]
  frequency of calcium events within microdomains: 0.50±0.06 event/minute
  proportion of active microdomains: 49.4±6.4%
[1]; [4]
  frequency of calcium events within the microdomains: 0.51±0.02 calcium event/min
  proportion of active microdomains: 53.0±2.7%
[1]; [5]
  frequency of calcium events within microdomains: 0.62±0.04 calcium event/minute
  proportion of active microdomains: 60.2±3.8%
CA1 pyramidal neurons
  neuronal hyperactivity (CA1): fully restored
